Laboratory results: the supplement of paper PMC13207355

Key:
Conditions in all cases: exposure time: 72 h
E13 [1] = patient-derived glioblastoma stem cells of classical subtype; test: surviving fraction (nuclei count normalised to DMSO); higher = more cells surviving (less toxic)
E21 [2] = patient-derived glioblastoma stem cells of mesenchymal subtype; test: as above
E28 [3] = patient-derived glioblastoma stem cells of classical subtype; test: as above
E31 [4] = patient-derived glioblastoma stem cells of proneural subtype; test: as above
E34 [5] = patient-derived glioblastoma stem cells of proneural subtype; test: as above
E57 [6] = patient-derived glioblastoma stem cells of mesenchymal subtype; test: as above
FT3469 [7] = normal neural stem cell line; test: as above
E13 [8] = test: phenotypic distance (Euclidean, principal components) from DMSO controls (arbitrary units); higher = stronger morphological change
E21 [9] = test: as above
E28 [10] = test: as above
E31 [11] = test: as above
E34 [12] = test: as above
E57 [13] = test: as above
FT3469 [14] = test: as above
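For phenotypic distance (Euclidean, principal components) from DMSO controls in this document: cell Painting imaging in 384-well plates, CellProfiler features reduced to at least 20 principal components, Euclidean distance versus same-plate DMSO vehicle wells (0.1% v/v), median over six images per well.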
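For surviving fraction (nuclei count normalised to DMSO) in this document: nuclei counted by high-content imaging of Hoechst-stained cells in laminin-coated 384-well plates, relative to 0.1% DMSO vehicle wells, with staurosporine as cell-death control.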

CC(C)C[C@H](NC(=O)CNC(=O)c1cc(Cl)ccc1Cl)B1OC(=O)C(CC(=O)O)(CC(=O)O)O1 [MLN9708]
Conditions	phenotypic distance	surviving fraction
E13 [1], 4.1 nM	–	0.0208
E13 [1], 12.3 nM	–	0.00954
E13 [1], 37 nM	–	0.0104
E13 [1], 111.1 nM	–	0.00174
E13 [1], 333.3 nM	–	0.00347
E13 [1], 1000 nM	–	0.00607
E13 [1], 3000 nM	–	0.000868
E13 [8], 4.1 nM	9.36	–
E13 [8], 12.3 nM	9.93	–
E13 [8], 37 nM	9	–
E13 [8], 111.1 nM	12.2	–
E13 [8], 333.3 nM	10.8	–
E13 [8], 1000 nM	10.1	–
E13 [8], 3000 nM	16.2	–
E21 [2], 4.1 nM	–	0.0299
E21 [2], 12.3 nM	–	0.0187
E21 [2], 37 nM	–	0.0103
E21 [2], 111.1 nM	–	0.0103
E21 [2], 333.3 nM	–	0.0084
E21 [2], 1000 nM	–	0.00373
E21 [2], 3000 nM	–	0.000933
E21 [9], 4.1 nM	7.66	–
E21 [9], 12.3 nM	7.71	–
E21 [9], 37 nM	11.9	–
E21 [9], 111.1 nM	7.64	–
E21 [9], 333.3 nM	11.8	–
E21 [9], 1000 nM	11.7	–
E21 [9], 3000 nM	15.7	–
E28 [3], 4.1 nM	–	0.244
E28 [3], 12.3 nM	–	0.239
E28 [3], 37 nM	–	0.158
E28 [3], 111.1 nM	–	0.0898
E28 [3], 333.3 nM	–	0.0988
E28 [3], 1000 nM	–	0.0719
E28 [3], 3000 nM	–	0.0719
E28 [10], 4.1 nM	3.84	–
E28 [10], 12.3 nM	3.91	–
E28 [10], 37 nM	4.06	–
E28 [10], 111.1 nM	7.19	–
E28 [10], 333.3 nM	5.5	–
E28 [10], 1000 nM	5.6	–
E28 [10], 3000 nM	6.86	–
E31 [4], 4.1 nM	–	0.082
E31 [4], 12.3 nM	–	0.0803
E31 [4], 37 nM	–	0.0151
E31 [4], 111.1 nM	–	0.00335
E31 [4], 333.3 nM	–	0.00669
E31 [4], 1000 nM	–	0.00335
E31 [4], 3000 nM	–	0.00669
E31 [11], 4.1 nM	5.67	–
E31 [11], 12.3 nM	7.74	–
E31 [11], 37 nM	9.26	–
E31 [11], 111.1 nM	14.5	–
E31 [11], 333.3 nM	11.4	–
E31 [11], 1000 nM	13	–
E31 [11], 3000 nM	12.3	–
E34 [5], 4.1 nM	–	0.307
E34 [5], 12.3 nM	–	0.293
E34 [5], 37 nM	–	0.123
E34 [5], 111.1 nM	–	0.0439
E34 [5], 333.3 nM	–	0.064
E34 [5], 1000 nM	–	0.0421
E34 [5], 3000 nM	–	0.0549
E34 [12], 4.1 nM	5.41	–
E34 [12], 12.3 nM	6.29	–
E34 [12], 37 nM	7.18	–
E34 [12], 111.1 nM	10.9	–
E34 [12], 333.3 nM	8.93	–
E34 [12], 1000 nM	12.6	–
E34 [12], 3000 nM	10.5	–
E57 [6], 4.1 nM	–	0.0256
E57 [6], 12.3 nM	–	0.0162
E57 [6], 37 nM	–	0.011
E57 [6], 111.1 nM	–	0.00523
E57 [6], 333.3 nM	–	0.00523
E57 [6], 1000 nM	–	0.00366
E57 [6], 3000 nM	–	0.0105
E57 [13], 4.1 nM	11.8	–
E57 [13], 12.3 nM	12.3	–
E57 [13], 37 nM	11.3	–
E57 [13], 111.1 nM	10.8	–
E57 [13], 333.3 nM	14.4	–
E57 [13], 1000 nM	8.37	–
E57 [13], 3000 nM	8.49	–
FT3469 [7], 4.1 nM	–	0.412
FT3469 [7], 12.3 nM	–	0.492
FT3469 [7], 37 nM	–	0.439
FT3469 [7], 111.1 nM	–	0.445
FT3469 [7], 333.3 nM	–	0.306
FT3469 [7], 1000 nM	–	0.156
FT3469 [7], 3000 nM	–	0.212
FT3469 [14], 4.1 nM	3.13	–
FT3469 [14], 12.3 nM	3.57	–
FT3469 [14], 37 nM	5.22	–
FT3469 [14], 111.1 nM	6.65	–
FT3469 [14], 333.3 nM	7.14	–
FT3469 [14], 1000 nM	7.83	–
FT3469 [14], 3000 nM	8.15	–
